Each structure is given as a SMILES string.

Granzyme B (human lymphocytes), sequence (P10144 21-247): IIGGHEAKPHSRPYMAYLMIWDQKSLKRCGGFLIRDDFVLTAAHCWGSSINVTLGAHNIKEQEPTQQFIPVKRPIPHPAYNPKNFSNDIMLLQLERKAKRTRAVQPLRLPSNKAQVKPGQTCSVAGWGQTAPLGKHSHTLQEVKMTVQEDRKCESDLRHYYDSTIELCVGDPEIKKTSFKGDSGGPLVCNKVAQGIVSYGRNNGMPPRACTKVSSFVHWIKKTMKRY

The target of the test is Granzyme B (human lymphocytes) (Homo sapiens (Human), UniProt P10144). Kind of test: human Granzyme B biochemical assay. As to conditions: Granzyme B (human lymphocytes) 5 nM, substrate Ac-IETD-AFC 200 μM, Cpd incubation with enzyme 30 mins, 22° C., read time 60 mins; read-out: IC50. The method in brief:
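Enzyme (10 nM working stock, assay buffer with 0.1% BSA) pre-incubated with compound for 30 min at 22 °C, then Ac-IETD-AFC (800 µM working stock) added for 60 min at 22 °C in the dark. Fluorescence read at Ex 400/Em 505 nm; 8-point 3.16-fold series (40 µM top working stock); IC50 from % inhibition versus standard-inhibitor and DMSO controls.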
What is called IC50 is the concentration that gives 50% inhibition. With `CC[C@H](C)[C@H](NC(=O)COCCF)C(=O)N[C@H]1CN(C)c2cccc3c2N(C1=O)[C@H](C(=O)NCc1c[nH]nn1)C3` [Compound C144, (3S,6S)-3-{(2S,3S)-2-[2-(2-Fluoro-ethoxy)-acetylamino]-3-methyl-pentanoylamino}-1-methyl-4-oxo-1,2,3,4,6,7-hexahydro-[1,4]diazepino[3,2,1-hi]indole-6-carboxylic acid (1H-[1,2,3]triazol-4-ylmethyl)-amide], the half-inhibitory concentration (IC50) was 1 to 300 nM.

As to `CC[C@H](C)[C@H](NC(=O)Cc1csc2ccccc12)C(=O)N[C@H]1COc2cccc3c2N(C1=O)[C@H](C(=O)NCc1c[nH]nn1)C3` [Compound C146, (1S,8S)-8-[(2S,3S)-2-(2-Benzo[b]thiophen-3-yl-acetylamino)-3-methyl-pentanoylamino]-9-oxo-1,2,8,9-tetrahydro-7H-6-oxa-9a-aza-benzo[cd]azulene-1-carboxylic acid (1H-[1,2,3]triazol-4-ylmethyl)-amide], the IC50 fell in the range of 1 to 300 nM. Turning to `N[C@H]1CCc2cccc3c2N(C1=O)[C@H](C(=O)NCc1c[nH]nn1)C3` [Compound C147, (2S,5S)-5-Amino-4-oxo-1,2,4,5,6,7-hexahydro-azepino[3,2,1-hi]indole-2-carboxylic acid (1H-[1,2,3]triazol-4-ylmethyl)-amide], the IC50 is > 5000 nM. Then `CC(=O)N[C@H]1CCc2cccc3c2N(C1=O)[C@H](C(=O)NCc1c[nH]nn1)C3` [Compound C148, (2S,5S)-5-Acetylamino-4-oxo-1,2,4,5,6,7-hexahydro-azepino[3,2,1-hi]indole-2-carboxylic acid (1H-[1,2,3]triazol-4-ylmethyl)-amide], with > 5000 nM; and `CC[C@H](C)[C@H](NC(=O)COCCF)C(=O)N[C@H]1CCc2cccc3c2N(C1=O)[C@H](C(=O)NCc1ccn[nH]1)C3` [Compound C149, (2S,5S)-5-{(2S,3S)-2-[2-(2-Fluoro-ethoxy)-acetylamino]-3-methyl-pentanoylamino}-4-oxo-1,2,4,5,6,7-hexahydro-azepino[3,2,1-hi]indole-2-carboxylic acid (2H-pyrazol-3-ylmethyl)-amide], with > 5000 nM. As to `CC[C@H](C)[C@H](NC(=O)Cc1cc2ccccc2s1)C(=O)N[C@H]1CCc2cccc3c2N(C1=O)[C@H](C(=O)NCc1c[nH]nn1)C3` [Compound C158, (2S,5S)-5-[(2S,3S)-2-(2-Benzo[b]thiophen-2-yl-acetylamino)-3-methyl-pentanoylamino]-4-oxo-1,2,4,5,6,7-hexahydro-azepino[3,2,1-hi]indole-2-carboxylic acid (1H-[1,2,3]triazol-4-ylmethyl)-amide], the IC50 is 1 to 300 nM. Then `CC[C@H](C)[C@H](NC(=O)Cc1cc2ccccc2o1)C(=O)N[C@H]1CCc2cccc3c2N(C1=O)[C@H](C(=O)NCc1c[nH]nn1)C3` [Compound C159, (2S,5S)-5-[(2S,3S)-2-(2-Benzofuran-2-yl-acetylamino)-3-methyl-pentanoylamino]-4-oxo-1,2,4,5,6,7-hexahydro-azepino[3,2,1-hi]indole-2-carboxylic acid (1H-[1,2,3]triazol-4-ylmethyl)-amide], with 1 to 300 nM; and `CC[C@H](C)[C@H](NC(=O)Cc1nc2ccccc2o1)C(=O)N[C@H]1CCc2cccc3c2N(C1=O)[C@H](C(=O)NCc1c[nH]nn1)C3` [Compound C160, (2S,5S)-5-[(2S,3S)-2-(2-Benzooxazol-2-yl-acetylamino)-3-methyl-pentanoylamino]-4-oxo-1,2,4,5,6,7-hexahydro-azepino[3,2,1-hi]indole-2-carboxylic acid (1H-[1,2,3]triazol-4-ylmethyl)-amide], with 1 to 300 nM.

As to `CC[C@H](C)[C@H](NC(=O)Cc1cc2ccccc2[nH]1)C(=O)N[C@H]1CCc2cccc3c2N(C1=O)[C@H](C(=O)NCc1c[nH]nn1)C3` [Compound C161, (2S,5S)-5-[(2S,3S)-2-(2-1H-Indol-2-yl-acetylamino)-3-methyl-pentanoylamino]-4-oxo-1,2,4,5,6,7-hexahydro-azepino[3,2,1-hi]indole-2-carboxylicacid (1H-[1,2,3]triazol-4-ylmethyl)-amide], the IC50 lay in the range of 1 to 300 nM. For the compound `CC[C@H](C)[C@H](NC(=O)Cc1nc2ccccc2[nH]1)C(=O)N[C@H]1CCc2cccc3c2N(C1=O)[C@H](C(=O)NCc1c[nH]nn1)C3` [Compound C162, (2S,5S)-5-[(2S,3S)-2-(2-1H-Benzoimidazol-2-yl-acetylamino)-3-methyl-pentanoylamino]-4-oxo-1,2,4,5,6,7-hexahydro-azepino[3,2,1-hi]indole-2-carboxylic acid (1H-[1,2,3]triazol-4-ylmethyl)-amide], the 50% inhibitory concentration (IC50) is 1 to 300 nM. The same measure for `CC[C@H](C)[C@H](NC(=O)COCCF)C(=O)N[C@H]1CCc2cccc3c2N(C1=O)[C@H](C(=O)NCc1ncn[nH]1)C3` [Compound C163, (2S,5S)-5-{(2S,3S)-2-[2-(2-Fluoro-ethoxy)-acetylamino]-3-methyl-pentanoylamino}-4-oxo-1,2,4,5,6,7-hexahydro-azepino[3,2,1-hi]indole-2-carboxylic acid (2H-[1,2,4]triazol-3-ylmethyl)-amide]: > 5000 nM. The same measure for `CC[C@H](C)[C@H](NC(=O)COCCF)C(=O)N[C@H]1CCc2cccc3c2N(C1=O)[C@H](C(=O)NCc1nc(O)n[nH]1)C3` [Compound C164, (2S,5S)-5-{(2S,3S)-2-[2-(2-Fluoro-ethoxy)-acetylamino]-3-methyl-pentanoylamino}-4-oxo-1,2,4,5,6,7-hexahydro-azepino[3,2,1-hi]indole-2-carboxylic acid (5-hydroxy-2H-[1,2,4]triazol-3-ylmethyl)-amide]: > 5000 nM.

Take `CC[C@H](C)[C@H](NC(=O)COCCF)C(=O)N[C@H]1CCc2cccc3c2N(C1=O)[C@H](C(=O)NCc1cc(O)n[nH]1)C3` [Compound C166, (2S,5S)-5-{(2S,3S)-2-[2-(2-Fluoro-ethoxy)-acetylamino]-3-methyl-pentanoylamino}-4-oxo-1,2,4,5,6,7-hexahydro-azepino[3,2,1-hi]indole-2-carboxylic acid (5-hydroxy-2H-pyrazol-3-ylmethyl)-amide]: the IC50 lay in the range of 1000 to 5000 nM. Take `CC[C@H](C)[C@H](NC(=O)COCCF)C(=O)N[C@H]1CCc2cccc3c2N(C1=O)[C@H](C(=O)NCB(O)O)C3` [Compound C170, {[((2S,5S)-5-{(2S,3S)-2-[2-(2-Fluoro-ethoxy)-acetylamino]-3-methyl-pentanoylamino}-4-oxo-1,2,4,5,6,7-hexahydro-azepino[3,2,1-hi]indole-2-carbonyl)-amino]-methyl}-boronic acid]: the concentration for half-maximal inhibition (IC50) was 301 to 1000 nM. Then `CC[C@H](C)[C@H](NC(=O)COCCF)C(=O)N[C@H]1CS(=O)(=O)c2cccc3c2N(C1=O)[C@H](C(=O)NCc1c[nH]nn1)C3` [Compound C172, (1S,8R)-8-{(2S,3S)-2-[2-(2-Fluoro-ethoxy)-acetylamino]-3-methyl-pentanoylamino}-6,6,9-trioxo-1,2,6,7,8,9-hexahydro-6lambda*6*- thia-9a-aza-benzo[cd]azulene-1-carboxylic acid (1H-[1,2,3]triazol-4-ylmethyl)-amide], with 301 to 1000 nM; and `CC[C@H](C)[C@H](NC(=O)CC1Cc2ccccc2O1)C(=O)N[C@H]1CCc2cccc3c2N(C1=O)[C@H](C(=O)NCc1c[nH]nn1)C3` (stereo partly drawn) [Compound C173, (2S,5S)-5-[(2S,3S)-2-(2-2,3-Dihydro-benzofuran-2-yl-acetylamino)-3-methyl-pentanoylamino]-4-oxo-1,2,4,5,6,7-hexahydro-azepino[3,2,1-hi]indole-2-carboxylic acid (1H-[1,2,3]triazol-4-ylmethyl)-amide], with 1 to 300 nM.
